Test results reported in patent publication US20190365700A1, “Methods for Isolating Tumor-Specific Immune Cells from a Subject for Adoptive Cell Therapy and Cancer Vaccines” (CRITITECH, INC., priority 2018, published 2019).
Converted amounts (≈) assume the structure as drawn. “And” between values parts separate entries of the source, which are not always exact repeats. Equal entries are not always repeated. Marks after values point to notes of the source that are not given here.

How the values were obtained:
[1] = tested on: human renal cell adenocarcinoma (786-O cell line); test: Renal cell adenocarcinoma xenograft: histology and IHC (viable carcinoma size, necrosis, lymphohistiocytic infiltrate); type: in vivo, Sprague-Dawley Rag2; Il2rg null (SRG®) rat
Source text: Microscopic Examination: Tissues fixed with 10% NBF were embedded in paraffin. Each tumor was cut into 2-3 pieces and embedded and sectioned together.

[2] = tested on: immune cells (CD45+, CD4+, CD8+, Treg, MDSC, M1 and M2 macrophages) in blood; test: Renca study: flow cytometry of immune cells in blood; type: in vivo, female BALB/c mice; settings: IV Docetaxel, individual animals
Experimental: Blood Collection: Collected full volume blood by terminal cardiac puncture under isoflurane anesthesia. Processed blood for: Whole Blood: anti-coagulant—K2EDTA, preservation—Cooled 4° C., shipping condition—4° C. (wet ice). Retained at CRL-NC for flow cytometry. See Flow panel in Table 40 below.
(§1) Peripheral blood and tumor tissue were collected for analysis via flow cytometry. Cell types analyzed included T-Cells: CD4+, CD8+(Tumor Suppression); Treg (Tumor Promotion); M1 Macrophages (Tumor Suppression); M2 Macrophages (Tumor Promotion); and […].

[3] = tested on: Renca syngeneic renal carcinoma; test: Renca syngeneic xenograft study: secondary tumor growth (groups 8-10); type: in vivo, female BALB/c mice; settings: IV docetaxel doses
Experimental: The schedule in Table 39 was followed.
Cell Injection Volume: 0.1 mL/mouse. Age at Start Date: 8 to 12 weeks. […] Body Weight: 5/2 then tiwk to end. Caliper Measurement: tiwk to end. Double caliper measurements were performed for Groups 8-10. […] The group was not euthanized and recovery was allowed.
Endpoints: Groups 1-7: Endpoint TGI. Animals were monitored as a group.

[4] = tested on: UM-UC-3 bladder cancer cell line (ATCC-CRL-1749) tumors; test: Human bladder cancer (UM-UC-3) mouse xenograft study: tumor volume, body weight, observations; type: in vivo, Hsd:Athymic Nude-Foxnlnu nude mice
Experimental: Tumor volume was determined with calipers. […] Animals were weighed 2×/week.
At day 18 after tumor implant, when average tumor size was between 50-325 mm^3, animals were sorted into five groups with equal average tumor sizes and were treated as shown in Table 25 below.
The second treatments (2nd cycle) occurred 7 days following first treatment (1st cycle) and third treatments (3rd cycle) occurred 14 days following the first treatment. The docetaxel solution IV was administered via the tail vein.
Vehicle (Control): Diluted 1 ml of the 1% Polysorbate 80/8% Ethanol in normal saline (0.9% Sodium Chloride for Injection) reconstitution solution with 1.5 mL of normal saline (0.9% Sodium Chloride for Injection, USP). […] Vigorously hand shook the vial with inversions for 1 minute. […] Allowed the suspension to sit undisturbed for at least 5 minutes to reduce entrapped air and foam. […] Vortexed to mix.

[5] = tested on: human renal cell adenocarcinoma (786-O cell line); test: Rat xenograft model of human renal cell adenocarcinoma: tumor volume, body weight, observations; type: in vivo, Sprague-Dawley Rag2; Il2rg null (SRG®) rat; settings: IV docetaxel, 3 weekly cycles
[6] = tested on: Renca syngeneic renal carcinoma
Source text: Animals were monitored as a group. […] When the endpoint was reached, all the animals were euthanized. […]

[7] = tested on: UM-UC-3 bladder cancer cell line (ATCC-CRL-1749) tumors; test: Bladder cancer xenograft: histology and IHC (viable carcinoma size, necrosis, macrophage infiltrate, TLS, necropsy volume); type: in vivo, Hsd:Athymic Nude-Foxnlnu nude mice
[8] = tested on: immune cells (CD45+, CD4+, CD8+, Treg, MDSC, M1 and M2 macrophages) in tumor tissue; test: Renca study: flow cytometry of immune cells in tumor tissue; type: in vivo, female BALB/c mice; settings: individual animals, IV docetaxel group
Experimental: Organ Collection: Tumor (divide into 2 parts). […] Sent to laboratory for IHC staining. Part 2: preservation—processed to single cell suspension, shipping condition—4° C. (wet ice). Retained at CRL-NC for flow cytometry. See Flow panel in Table 40 below. Tumor preservation for early euthanasia in Groups 2-10: Excised tumor and surrounding area from the mammary fat pad area (cranial) to just past tumor (caudal). The region included the inguinal lymph node. Sectioned this sample every 4 mm from the cranial to caudal end and enclosed in separate cassettes labeled in order.
as §1

[9] = Solubility of the active in receptor fluid; type: physicochemical; settings: 96 wt % PBS pH 7.4 and 4 wt % HPBCD
Experimental: The receptor fluid was degassed by filtering the receptor fluid through a ZapCap CR 0.2 μm membrane while pulling vacuum. The filtered receptor fluid was stirred for an additional 20 minutes while maintaining vacuum to ensure complete degassing.

[10] = IV Docetaxel 3 cycles, 2 animals
[11] = IV docetaxel 3 cycles, two cases

## CC(=O)O[C@@]12CO[C@@H]1C[C@H](O)[C@@]1(C)C(=O)[C@H](O)C3=C(C)[C@@H](OC(=O)[C@H](O)[C@@H](NC(=O)OC(C)(C)C)c4ccccc4)C[C@@](O)([C@@H](OC(=O)c4ccccc4)[C@H]21)C3(C)C [Doce]
[1]; IV docetaxel, 2 animals
  Number of animals with <5% of tissue showing necrosis: 2
[1]; IV docetaxel, 2 animals, H/E and CD11b IHC
  Lymphohistiocytic infiltrate density: number of animals graded Mild: 2

## CC(=O)O[C@@]12CO[C@@H]1C[C@H](O)[C@@]1(C)C(=O)[C@H](O)C3=C(C)[C@@H](OC(=O)[C@H](O)[C@@H](NC(=O)OC(C)(C)C)c4ccccc4)C[C@@](O)([C@@H](OC(=O)c4ccccc4)[C@H]21)C3(C)C [docetaxel]
[2]
  CD8 (% of CD45): 1.18 % of CD45 and 1.46 % of CD45 and 1.58 % of CD45 and 1.55 % of CD45 and 1.59 % of CD45 and 0.55 % of CD45 and 1.28 % of CD45 and 1.03 % of CD45 and 1.02 % of CD45 and 0.73 % of CD45
  CD8 Count: 17438 and 12556 and 18524 and 4199 and 7615 and 8711 and 14504 and 9765 and 8882 and 12561
  CD45 (% of Live): 98.5 % of Live and 80.9 % of Live and 97.9 % of Live and 95.7 % of Live (2×) and 96.1 % of Live and 95.5 % of Live and 95.6 % of Live and 97 % of Live and 96.4 % of Live
  CD45 Count: 1360000 (2×) and 1180000 and 1200000 and 1010000 and 348468 and 983000 and 1340000 and 1210000 and 968000
  Conv CD4 (% of CD45): 2.49 % of CD45 and 3.95 % of CD45 and 3.1 % of CD45 and 2.64 % of CD45 and 2.38 % of CD45 and 1.58 % of CD45 and 3.25 % of CD45 and 1.32 % of CD45 and 2.46 % of CD45 and 1.77 % of CD45
  Conv CD4 Count: 44244 and 33048 and 31633 and 9629 and 12646 and 22949 and 34177 and 22034 and 21457 and 27808
  Live Count: 1420000 and 1220000 and 1250000 and 1030000 and 350478 and 1390000 and 1010000 and 1360000 and 1260000 and 997000
  M1 Mac (% of CD45): 15.1 % of CD45 and 9.39 % of CD45 and 12.3 % of CD45 and 6.95 % of CD45 and 7.96 % of CD45 and 6.79 % of CD45 and 9.93 % of CD45 and 10.7 % of CD45 and 9.78 % of CD45 and 9.15 % of CD45
  M1 Mac Count: 135234 and 150642 and 83214 and 124451 and 18526 and 145555 and 84022 and 122157 and 110868 and 43948
  M2 Mac (% of CD45): 0.12 % of CD45 and 0.054 % of CD45 and 0.066 % of CD45 and 0.14 % of CD45 and 0.17 % of CD45 and 0.2 % of CD45 and 0.056 % of CD45 and 0.48 % of CD45 and 0.07 % of CD45 and 0.19 % of CD45
  M2 Mac Count: 765 and 815 and 1633 and 582 and 373 and 875 and 257 and 2069 and 2323 and 512
  MDSC (% of CD45): 72.7 % of CD45 and 64.8 % of CD45 and 63.3 % of CD45 and 75.9 % of CD45 and 72.8 % of CD45 and 79 % of CD45 and 73.4 % of CD45 and 72.5 % of CD45 and 77.7 % of CD45 and 76.3 % of CD45
  MDSC Count: 1000000 (2×) and 871000 and 909000 and 742000 and 255851 and 734000 (2×) and 1010000 and 925000
  Treg (% of CD45): 0.092 % of CD45 and 0.22 % of CD45 and 0.13 % of CD45 and 0.073 % of CD45 and 0.035 % of CD45 and 0.078 % of CD45 and 0.087 % of CD45 and 0.047 % of CD45 and 0.1 % of CD45 and 0.071 % of CD45
  Treg Count: 1182 and 578 and 872 and 461 and 222 and 871 and 1300 and 870 and 856 and 992
[1]; Docetaxel (IV) 3 cycles, female rat
  histology vs vehicle control (H&E): no difference
[1]; IV docetaxel, 2 animals
  Number of animals with residual viable carcinoma >10 mm on slide: 2
[3]
  growth rate of the secondary Renca tumors: did not reduce the growth rate
[4]; Docetaxel IV 30 mg/kg, 3 cycles, 61 days
  tumor volumes: decreased initially
[4]; Docetaxel IV 3 cycles
  effectiveness by initial tumor size: somewhat effective at treating small tumors, but not very effective in treating large tumors
[4]; Docetaxel IV 3 cycles vs nDoce IT 1, 2, 3 cycles
  initial animal weight loss: generally greater
[4]; Docetaxel IV 3 cycles vs nDoce IT 3 cycles
  signs of peripheral neuropathy: greater signs of peripheral neuropathy
[5]
  tumor growth compared to vehicle control: partial tumor growth inhibition
[6]; IV docetaxel Day 1 (10 mg/kg) and Day 11 (5 mg/kg)
  tumor volume compared to vehicle: No difference
[6]; mouse, in vivo, iv
  toxicity leading to modified administration schedule: systemic toxicity
[7]; Docetaxel Solution IV 3 cycles
  general histological observation (H&E): many viable appearing tumor masses with some macrophage and occasional lymphocytic response along with some tumor necrosis
[7]; [10]
  animals with 11-50% of tumor showing necrosis: 1
  animals with 50-90% of tumor showing necrosis: 1
  animals with maximum size of viable invasive carcinoma on the slide >10 mm: 2*
[7]; IV Docetaxel 3 cycles, surrounding non-neoplastic tissue, H&E and CD68 IHC
  Macrophage infiltrate density: number of animals graded Mild: 2
[7]; [11]
  TLSs: no TLSs present
  tumor masses, maximum dimension on the slide: 11 mm and 15 mm
[8]
  CD8 (% of CD45): 0.75% and 0.5% and 0.28% and 0.31% (2×) and 0.061% and 0.32% and 0.45% and 0.81% and 0.33%
  CD8 Count: 33 and 40 and 26 and 193 and 9 and 145 and 36 and 214 and 137 and 270
  CD45 (% of Live): 38.2% and 42.8% and 52.7% and 68.9% and 74.1% and 57.8% and 32.5% and 63.3% and 73% and 67.2%
  CD45 Count: 4375 and 8052 and 9275 and 62614 and 14728 and 45332 and 8088 and 26310 and 41555 and 86029
  Conv CD4 (% of CD45): 1.23% and 1.15% and 1.51% and 0.44% and 0.16% and 0.58% and 0.62% and 2.55% and 1.65% and 0.59%
  Conv CD4 Count: 54 and 93 and 140 and 275 and 23 and 265 and 50 and 670 and 687 and 509
  Live Count: 11443 and 18796 and 17590 and 90940 and 19863 and 78365 and 24901 and 41595 and 56947 and 128055
  M1 Mac (% of CD45): 10.5% and 6.97% and 8.59% and 8.44% and 3.34% and 9.16% and 8.65% and 7.47%
  M1 Mac Count: 460 and 561 and 797 and 5285 and 492 and 4154 and 700 and 3186 and 5446 and 6428
  M2 Mac (% of CD45): 28% and 25.2% and 18.6% and 25.3% and 2.66% and 54.1% and 8.62% and 26.9% and 52.8% and 67.2%
  M2 Mac Count: 1223 and 2030 and 1727 and 15846 and 392 and 24543 and 697 and 7074 and 21953 and 57825
  MDSC (% of CD45): 25.1% and 32.8% and 42.5% and 44% and 83.3% and 20% and 70.4% and 37.3% and 10.4%
  MDSC Count: 1098 and 2644 and 3940 and 27578 and 12265 and 9063 and 5696 and 9821 and 4302 and 11067
  Treg (% of CD45): 1.58% and 0.55% and 0.32% and 0.62% and 0.16% and 0.54% and 0.21% and 1.05% and 0.42% and 0.6%
  Treg Count: 69 and 44 and 30 and 386 and 23 and 244 and 17 and 276 and 176 and 520

## CC(=O)O[C@H]1C(=O)[C@@]2(C)[C@H]([C@H](OC(=O)c3ccccc3)[C@]3(O)C[C@H](OC(=O)[C@H](O)[C@@H](NC(=O)c4ccccc4)c4ccccc4)C(C)=C1C3(C)C)[C@]1(OC(C)=O)CO[C@@H]1C[C@@H]2O [paclitaxel]
[9]
  solubility in the receptor fluid: ~0.4 µg/mL (≈ 0.468 µM)
